Assay results taken from patent US20040260071A1, “Benzophene-linked crf and crf-like peptides for covalent labeling of corticotropin-releasing factor crf binding protein” (priority 2001, published 2004).
Where “and” joins values, the source holds several entries; their conditions need not be identical. Equal entries are not always repeated. Non-standard residues stand in square brackets, D forms with d. Residues, ends and D or L forms follow the SMILES beside them. No end group written: not given here. *: point of attachment. Benzoyl(4-benzoyl) = O=C(c1ccccc1)c1ccc(C(=O)*)cc1; Bpa = N[C@@H](Cc1ccc(C(=O)c2ccccc2)cc1)C(=O)O

Assays:
rCRFBP [1] = molecular target: T1, rCRFBP (Rattus norvegicus, UniProt P24388); experiment: Radioligand binding assay (charcoal precipitation, 3H-rUcn) for affinity to rCRFBP; conditions: for Ki: mean ± S.E.M. of three independent experiments in duplicate, 3H-rUcn radioligand, Cheng-Prusoff, read-out: Inhibition constants (Kl)
T1 construct: made in house; host or cells: HEK 293 cells, stably transfected (pcDNA3); serum-free conditioned medium used directly
T1 sequence (P24388 25-322): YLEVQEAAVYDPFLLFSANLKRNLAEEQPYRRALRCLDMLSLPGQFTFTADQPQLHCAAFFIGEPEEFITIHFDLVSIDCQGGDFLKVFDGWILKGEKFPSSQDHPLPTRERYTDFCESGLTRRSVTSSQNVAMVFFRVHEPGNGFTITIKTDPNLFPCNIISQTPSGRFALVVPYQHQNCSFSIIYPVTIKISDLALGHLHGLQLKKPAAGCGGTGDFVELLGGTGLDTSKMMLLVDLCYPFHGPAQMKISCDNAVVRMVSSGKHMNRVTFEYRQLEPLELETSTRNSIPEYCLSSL
Description: The peptides were tested for their affinity to rCRFBP on the basis of a charcoal precipitation assay utilizing tritiated Ucn as radioligand (21). […] Siliconized microreaction vials (Sigma, Deisenhofen, Germany) were used to prevent binding of peptides to plastic surfaces. Competition binding experiments were performed by employing 0 to maximally 3 μM unlabeled competitor. The applied concentration range depended on the expected order of magnitude of ligand affinity. After 2 hours of incubation at room temperature, unbound ligand was precipitated by the addition of 100 μl precipitation buffer (binding buffer+10% w/v activated charcoal+2% BSA). The suspension was mixed vigorously and the adsorption was allowed to proceed for 2 min at room temperature. After centrifugation for 2 min at 12000×g, 200 μl supernatant was removed, mixed with 2 ml Ecolume liquid scintillation cocktail (ICN Biomedicals, Irvine, Calif.), and counted for 3 min in a Wallac 1209 Rackbeta liquid scintillation counter (Wallac, Turku, Finland). All assays were performed in duplicate and repeated at least three times. Binding data were analyzed using the Prism computer program (GraphPad Software, San Diego, Calif.).

rCRFBP [2] = molecular target: T1, rCRFBP; experiment: Photoaffinity labeling of rCRFBP (photoadduct formation); type: biochemical; conditions: for Photoadduct yield determined by immunoblotting: comparison of photoprobes (FIG. 6)
Description: 1 nM CRFBP was incubated with a 100 fold molar excess of photoactivatable ligand for 1 hour at room temperature. […] The irradiation was carried out with UV-light of wavelenghts greater than 300 nm in an ice bath.
rCRFBP (approximate final concentration 10 nM) was incubated with 100 nM of the photoactivatable peptide according to the conditions of the radioligand binding assay. Medium from stably transfected HEK 293 cells was directly used as source for rCRFBP. Irradiation of the benzophenone photoprobes was carried out at 0° C. with a self-constructed photoreaction device incorporating a 400 W halogen metal vapor lamp (Ultratech, Osram, Germany). This lamp provides a wide spectrum of emission at wavelenghts above 250 nm with a maximum at 370 nm which is consistent with the activation wavelenght (350-360 nm) for benzophenone derivatives (13). Protein-damaging wavelenghts below 300 nm were avoided by the use of a filter screen consisting of the optical glass type B 270 (Schoft, Mainz, Germany). The aryldiazirine photoprobe was irradiated as described (14) using a commercially available stratalinker device.
Unless otherwise stated, activation was carried out for 30 min at 0° C. with an Ultratech 400 W halogen metal vapor lamp (Osram). Protein-damaging wavelenghts below 300 nm were filtered with a B270 glass screen (Schott). Unlabeled rCRFBP and the photoadduct were co-purified by adsorption to a nickel-chelate matrix under denaturing conditions. The eluted fraction was analyzed by SDS PAGE (45) (9% polyacrylamide gels) and by reversed-phase HPLC coupled on-line to mass spectrometry (HPLC-MS) on a Vydac C4 column (0.3×150 mm; LC Packings).

rCRFBP [3] = molecular target: T1, rCRFBP; experiment: Scintillation proximity assay with [125I-Tyr0]h/rCRF as radioligand, binding to rCRFBP; conditions: Example 8; 95% CI given alongside; read-out: IC50 (affinity to rCRFBP)
Excerpt: Recombinant rCRFBP containing a C-terminal His-tag was produced in human embryonic kidney (HEK) 293 cells under serum-free conditions (45).

[4] = photoprobes 100 nM, competitor 1 μM (FIG. 12a)
[5] = photoprobe pBB-rUcn, competitor in ten-fold excess (FIG. 5)

CC[C@H](C)[C@H](NC(=O)[C@H](CO)NC(=O)[C@H](CC(C)C)NC(=O)[C@@H]1CCCN1C(=O)[C@@H]1CCCN1C(=O)[C@H](CC(=O)O)NC(=O)[C@H](CC(=O)O)NC(=O)c1ccc(C(=O)c2ccccc2)cc1)C(=O)N[C@@H](CC(=O)O)C(=O)N[C@@H](CC(C)C)C(=O)N[C@H](C(=O)N[C@@H](Cc1ccccc1)C(=O)N[C@@H](Cc1c[nH]cn1)C(=O)N[C@@H](CC(C)C)C(=O)N[C@@H](CC(C)C)C(=O)N[C@@H](CCCNC(=N)N)C(=O)N[C@H](C(=O)N[C@@H](CC(C)C)C(=O)N[C@@H](CC(C)C)C(=O)N[C@@H](CCC(=O)O)C(=O)N[C@@H](CC(C)C)C(=O)N[C@@H](C)C(=O)N[C@@H](CCCNC(=N)N)C(=O)N[C@H](C(=O)N[C@@H](CCC(N)=O)C(=O)N[C@@H](CO)C(=O)N[C@@H](CCC(N)=O)C(=O)N[C@@H](CCCNC(=N)N)C(=O)N[C@@H](CCC(=O)O)C(=O)N[C@@H](CCCNC(=N)N)C(=O)N[C@@H](C)C(=O)N[C@@H](CCC(=O)O)C(=O)N[C@@H](CCC(N)=O)C(=O)N[C@@H](CC(N)=O)C(=O)N[C@@H](CCCNC(=N)N)C(=O)N[C@H](C(=O)N[C@H](C(=O)N[C@@H](Cc1ccccc1)C(=O)N[C@@H](CC(=O)O)C(=O)N[C@@H](CO)C(=O)N[C@H](C(N)=O)C(C)C)[C@@H](C)CC)[C@@H](C)CC)[C@@H](C)O)[C@@H](C)O)[C@@H](C)O [Compound 2, pBB-rUcn]
Ki (rCRFBP [1]): < 1 nM and 0.99 nM
Photoadduct yield by integration of the UV trace (rCRFBP [2]; HPLC of affinity purified photoreaction products (FIG. 8)): 60%
Maximal photoadduct yield (rCRFBP [2]; Western blot densitometry, 30 min irradiation with B 270 filter screen (FIG. 4C)): up to 50%
Photoadduct yield determined by immunoblotting (rCRFBP [2]): 50%
Photoadduct yield by SDS PAGE silver staining (rCRFBP [2]; preparative scale, nickel-affinity purified (FIG. 7)): 50%

CC[C@H](C)[C@H](NC(=O)[C@H](CO)NC(=O)[C@H](CC(C)C)NC(=O)[C@@H]1CCCN1C(=O)[C@@H]1CCCN1C(=O)[C@H](CC(=O)O)NC(=O)[C@@H](N)CC(=O)O)C(=O)N[C@@H](CC(=O)O)C(=O)N[C@@H](CC(C)C)C(=O)N[C@H](C(=O)N[C@@H](Cc1ccc(C(=O)c2ccccc2)cc1)C(=O)N[C@@H](Cc1c[nH]cn1)C(=O)N[C@@H](CC(C)C)C(=O)N[C@@H](CC(C)C)C(=O)N[C@@H](CCCNC(=N)N)C(=O)N[C@H](C(=O)N[C@@H](CC(C)C)C(=O)N[C@@H](CC(C)C)C(=O)N[C@@H](CCC(=O)O)C(=O)N[C@@H](CC(C)C)C(=O)N[C@@H](C)C(=O)N[C@@H](CCCNC(=N)N)C(=O)N[C@H](C(=O)N[C@@H](CCC(N)=O)C(=O)N[C@@H](CO)C(=O)N[C@@H](CCC(N)=O)C(=O)N[C@@H](CCCNC(=N)N)C(=O)N[C@@H](CCC(=O)O)C(=O)N[C@@H](CCCNC(=N)N)C(=O)N[C@@H](C)C(=O)N[C@@H](CCC(=O)O)C(=O)N[C@@H](CCC(N)=O)C(=O)N[C@@H](CC(N)=O)C(=O)N[C@@H](CCCNC(=N)N)C(=O)N[C@H](C(=O)N[C@H](C(=O)N[C@@H](Cc1ccccc1)C(=O)N[C@@H](CC(=O)O)C(=O)N[C@@H](CO)C(=O)N[C@H](C(N)=O)C(C)C)[C@@H](C)CC)[C@@H](C)CC)[C@@H](C)O)[C@@H](C)O)[C@@H](C)O [Compound 6, pBF^11-rUcn] (H-DDPPLSIDLT[Bpa]HLLRTLLELARTQSQRERAEQNRIIFDSV-NH2; N-terminus assumed)
Ki (rCRFBP [1]): 400 ± 35 nM
Decrease of affinity to CRFBP relative to unmodified rUcn (rCRFBP [1]; modification within the central part of the peptide): three orders of magnitude

CC[C@H](C)[C@H](NC(=O)[C@H](CO)NC(=O)[C@H](CC(C)C)NC(=O)c1ccc(C(=O)c2ccccc2)cc1)C(=O)N[C@@H](CC(=O)O)C(=O)N[C@@H](CC(C)C)C(=O)N[C@H](C(=O)N[C@@H](Cc1ccccc1)C(=O)N[C@@H](Cc1c[nH]cn1)C(=O)N[C@@H](CC(C)C)C(=O)N[C@@H](CC(C)C)C(=O)N[C@@H](CCCNC(=N)N)C(=O)N[C@H](C(=O)N[C@@H](CC(C)C)C(=O)N[C@@H](CC(C)C)C(=O)N[C@@H](CCC(=O)O)C(=O)N[C@@H](CC(C)C)C(=O)N[C@@H](C)C(=O)N[C@@H](CCCNC(=N)N)C(=O)N[C@H](C(=O)N[C@@H](CCC(N)=O)C(=O)N[C@@H](CO)C(=O)N[C@@H](CCC(N)=O)C(=O)N[C@@H](CCCNC(=N)N)C(=O)N[C@@H](CCC(=O)O)C(=O)N[C@@H](CCCNC(=N)N)C(=O)N[C@@H](C)C(=O)N[C@@H](CCC(=O)O)C(=O)N[C@@H](CCC(N)=O)C(=O)O)[C@@H](C)O)[C@@H](C)O)[C@@H](C)O [Compound 8, pBB-rUcn^5-32] ({Benzoyl(4-benzoyl)}-LSIDLTFHLLRTLLELARTQSQRERAEQ-OH)
Ki (rCRFBP [1]): 37 ± 3.5 nM

CC[C@H](C)[C@H](N)C(=O)N[C@@H](CO)C(=O)N[C@@H](CC(C)C)C(=O)N[C@@H](CC(=O)O)C(=O)N[C@@H](CC(C)C)C(=O)N[C@H](C(=O)N[C@@H](Cc1ccccc1)C(=O)N[C@@H](Cc1c[nH]cn1)C(=O)N[C@@H](CC(C)C)C(=O)N[C@@H](CC(C)C)C(=O)N[C@@H](CCCNC(=N)N)C(=O)N[C@@H](CCC(=O)O)C(=O)N[C@H](C(=O)N[C@@H](CC(C)C)C(=O)N[C@@H](CCC(=O)O)C(=O)N[C@@H](CCSC)C(=O)N[C@@H](C)C(=O)N[C@@H](CCCNC(=N)N)C(=O)N[C@@H](C)C(=O)N[C@@H](CCC(=O)O)C(=O)N[C@@H](CCC(N)=O)C(=O)N[C@@H](CC(C)C)C(=O)N[C@@H](C)C(=O)N[C@@H](CCC(N)=O)C(=O)N[C@@H](CCC(N)=O)C(=O)N[C@@H](C)C(=O)N[C@@H](Cc1ccc(C(=O)c2ccccc2)cc1)C(=O)N[C@@H](CO)C(=O)O)C(C)C)[C@@H](C)O [Compound 14, [pBPhe^32]h/rCRF^6-33] (H-ISLDLTFHLLREVLEMARAEQLAQQA[Bpa]S-OH; N-terminus assumed)
IC50 (rCRFBP [3]): 2.1 nM

H-ISLDLTFHLLREVLEMARAEQLAQQAHS-OH [Compound 9, h/rCRF^6-33, reference compound]
Suppression of photoadduct formation by competitor (rCRFBP [2]; [4]): completely suppressed

LSIDLTFHLLRTLLELARTQSQRERAEQ-OH [Compound 7, rUcn^5-32, reference compound]
Ki (rCRFBP [1]): 1.1 ± 0.06 nM

ovine CRF [oCRF, reference compound]
Suppression of photoadduct formation by competitor (rCRFBP [2]; [5]): not
Suppression of photoadduct formation by competitor (rCRFBP [2]; [4]): not

pBB-h/rCRF [Compound 4]
Photoadduct yield determined by immunoblotting (rCRFBP [2]): 50%

pBB-h/rCRF^6-33 [Compound 10]
Photoadduct yield at different time points of irradiation (rCRFBP [2]; immunodetection, densitometry (FIG. 12c)): ≤ 65%

rUcn [Compound 1, reference compound]
Suppression of photoadduct formation by competitor (rCRFBP [2]; [5]): suppressed
